Our source for the EC50 values is BindingDB's records for doi:10.1016/j.bmcl.2017.04.068 (Beijing Institute of Pharmacology & Toxicology, 2017).

Broadly, the EC50 is the concentration needed to bring the measured effect to its halfway point.

The assay in a line: Inhibition of rilpivirine-resistant HIV1 NL4-3 reverse transcriptase E138K mutant infected in human TZM-b1 cells after 2 days by bright Glo-luciferase reporter gene assay. A general note: Reporter assays use an easily measured gene product as a stand-in for the process of interest.
On to `COCCOC(=O)c1cc(N)c(Nc2ccc(C#N)cc2)cc1Oc1c(C)cc(/C=C/C#N)cc1C`, for which the response was half-maximal at 4.6 nM (EC50). `Cc1cc(/C=C/C#N)cc(C)c1Oc1cc(Nc2ccc(C#N)cc2)c(N)cc1C(=O)NCCCO` showed an EC50 of 23 nM.

Regarding `Cc1cc(/C=C/C#N)cc(C)c1Oc1cc(Nc2ccc(C#N)cc2)c(N)cc1C(=O)NCCCl`, the EC50 is 8.5 nM.

`Cc1cc(/C=C/C#N)cc(C)c1Oc1cc(Nc2ccc(C#N)cc2)c(N)cc1C(=O)N1CC1` returned an EC50 of 8.7 nM. The compound `Cc1cc(/C=C/C#N)cc(C)c1Oc1cc(Nc2ccc(C#N)cc2)c(N)cc1C(=O)OCCC#N` gave an EC50 of 2.9 nM.
